Laboratory results: patent US9586914B2, “Modulators of C3a receptors” (THE UNIVERSITY OF QUEENSLAND, priority 2011, dated 2017)
“Also recorded” adds a separate entry of the source. Like-named read-outs stand apart in the source and are kept apart here.

Experiments:
[1] = target: T1, C3a receptor (C3aR) (Homo sapiens, UniProt Q16581); experiment: Competitive binding with [^125I]-C3a in HMDM; conditions: for IC50 / pIC50 ± SEM / Receptor Binding Affinity pIC50 ± SE: HMDM
T1 construct: peripheral blood mononuclear cells were isolated from buffy coat (obtained from Australian Red Cross Blood Service, Kelvin Grove); endogenous in cells; host or cells: primary human monocyte-derived macrophages (HMDM) differentiated from CD14+ monocytes of donor buffy coat
T1 sequence (Q16581 1-482): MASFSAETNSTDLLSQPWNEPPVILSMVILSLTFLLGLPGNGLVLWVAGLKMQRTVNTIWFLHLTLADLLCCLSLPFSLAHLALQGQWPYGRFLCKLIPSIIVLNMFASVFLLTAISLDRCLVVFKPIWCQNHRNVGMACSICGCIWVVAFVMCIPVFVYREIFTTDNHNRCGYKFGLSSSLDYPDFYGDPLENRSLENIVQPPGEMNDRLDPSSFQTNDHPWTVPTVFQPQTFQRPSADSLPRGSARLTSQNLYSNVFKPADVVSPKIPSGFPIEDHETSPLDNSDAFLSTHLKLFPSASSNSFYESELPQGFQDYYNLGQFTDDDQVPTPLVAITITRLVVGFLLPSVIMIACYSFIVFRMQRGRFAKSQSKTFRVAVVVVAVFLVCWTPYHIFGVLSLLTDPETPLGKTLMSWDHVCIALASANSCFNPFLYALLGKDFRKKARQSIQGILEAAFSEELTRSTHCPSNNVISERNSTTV
Outline: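 IC50 values are geometric means, with −log IC50 computed per experiment and given as arithmetic mean ± SE. Cells were CD14+ monocytes from buffy-coat PBMC, differentiated to macrophages and used on day 7. Unbound label was removed by GF/B filtration with 3 cold washes in 50 mM Tris-HCl pH 7.4.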

[2] = target: T2, C3aR (Homo sapiens, UniProt Q16581); experiment: Calcium mobilization assay in HMDM (agonist/antagonist activity); assay type: cell-based
T2 construct: peripheral blood mononuclear cells were isolated from buffy coat (obtained from Australian Red Cross Blood Service, Kelvin Grove); endogenous in cells; host or cells: primary human monocyte-derived macrophages (HMDM) differentiated from CD14+ monocytes of donor buffy coat
T2 sequence (Q16581 1-482): T1 sequence (Q16581 1-482)
Outline: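 Human monocyte-derived macrophages, 5×10^4 cells/well, loaded 1 h at 37 °C with 4 μM Fluo-3 in HBSS/HEPES/probenecid buffer, pH 7.4. Agonist mode: calcium release read 300 s; antagonist mode: 900 s compound preincubation then agonist, read 300 s (ex 485/em 520 nm); compared with hC3a.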

[3] = tested on: IL1B, IL8, CCL3, EGR1, FOSB and TNF gene expression in HMDMs; experiment: Regulation of inflammatory genes in HMDM (qRT-PCR); assay type: cell-based, human; conditions: for Induction of gene expression of IL1B, IL8, CCL3, EGR1, FOSB and TNF: HMDMs, 300 nM, 30 minutes, qRT-PCR, fold change from control
Excerpt: Human monocyte-derived macrophages (HMDMS) were isolated from buffy coat of anonymous donors provided by the Australian Red Cross Blood Service at Kelvin Grove, Queensland, Australia. White blood cells were separated from other blood components into different layers using Ficoll-Paque Plus Density Centrifugation (GE Healthcare Bio-Science, Uppsala, Sweden) according to manufacturer's instruction. The isolated white blood cells were repeatedly washed with ice-cold water to remove contaminating erythrocytes. CD14^+ monocytes were positively selected from white blood cells using CD14^+ Macs Magnetic Beads (Miltenyi biotech, Auburn, Calif., USA) after successive magnetic sorting and washings. CD14^+ monocytes (1.5×10^6 cells/mL) were seeded in 10 mL of IMDM supplemented with 10% fetal calf serum (FBS), 10 U/mL streptomycin, 10 U/mL penicillin and 2 mmol L-glutamine (Invitrogen). To generate HMDMS, […] of recombinant human macrophage colony stimulating factor (M-CSF) (Peprotech Inc., rocky Hill, N.J., USA) was added for differentiation. HMDMS were maintained at 37° C. in a humidified incubator with 5% CO2 for a week to fully differentiate. At day 7, the adhered HMDMS were harvested by gentle scraping in saline solution.
HMDMs (2×10^6) in 2 mL of IMDM medium were transferred into each well on a 6-well plate. The cells were left to incubate for 6 h to allow adhesion before being serum starved in serum free IMDM to reduce background noise of the C3a treatment. In the time response experiment, cells were treated with 10 nM of C3a or agonist (compound 8 or 64) for 0.5, 1, 2 or 6 h. In concentration response experiments, cells were treated with 1, 10, 100 or 300 nM for 1 h. To prepare the samples for the microarray experiments, cells were treated with agonist at 100-300 nM for 30 min or 1 h in the absence or presence of the antagonist (e.g. SB-290157 or antagonists). […] Cells were washed with saline solution at the end of each treatment before the RNA extraction step.
Total RNA was extracted from cells using RNeasy Mini Plus kit (Qiagen, USA) according to the manufacturer's instructions. The concentration of the RNA was determined by measuring absorbance at λ=260/280 […] on a nanodrop spectrophotometer (Thermo Scientific), according to the manufacturer's instructions.
Total RNA (2-5 μg) was reverse transcribed with Superscript III (Invitrogen, USA) using random oligo dT primer. Reagents were incubated (50 min, 50° C.; then 10 min, 70° C.) in thermal cyclers (Bio-Rad) to complete the reaction, cDNA samples were stored at −20° C. until further use. All RNA work was performed on ice (4° C.) to prevent degradation of the RNA samples.
cDNA (0.5 μg) samples were prepared with 5 μL SYBR® Green PCR master mix (Applied Biosystems™, CA, USA), 2 μL relevant primers (2 μM) and 1 μL dH2O before being analysed using an ABI 7900HT Fast Real-Time PCR System (Applied Biosystems™, CA, USA) according to the manufacturer's specifications. Fluorescence data was collected during the extension phase (60° C.). The concentration response data for each sample was then normalised against the same data for control housekeeping gene, (18S) to quantify and generate gene expression data. All samples were done in at least duplicate. Primers were designed using the Primer-BLAST software (National Center for Biotechnology Information, USA). Primers contained, amplicons that cross exon-exon boundaries to prevent amplification of genomic DNA. […]

[4] = Table 8, read-out: Receptor Binding Affinity ^125I IC50
[5] = Table 10, HMDM, read-out: Agonist Activity EC50
[6] = Table 6, competitive binding with [^125I]-C3a
[7] = Table 6, competitive binding with [^125I]-C3a, read-out: IC50 (converted)
[8] = Table 11, [^125I]-C3a, read-out: Receptor Binding Affinity IC50
[9] = Table 9, Ca^2+ mobilization, HMDM
[10] = Table 11, Ca^2+ mobilisation, HMDM

IC50 [1, 4] [nM]	-Log IC50 ([1]; Table 14, binding affinity for C3aR on HMDM)	EC50 [2, 5] [nM]	Function at C3aR (agonist / antagonist) ([2]; text of Example 100)	pIC50 ± SEM [1, 6]	IC50 [1, 7] [nM]	Receptor Binding Affinity pIC50 ± SE ([1]; Table 11, [^125I]-C3a)	IC50 [1, 8] [nM]	pEC50 ± SEM [2, 9]	IC50 ([2]; Table 9, antagonist SB290157, Ca^2+ mobilization, HMDM, read-out: IC50 (printed in the EC50 (nM) column)) [nM]	IC50 ([2]; Table 10, HMDM, read-out: Antagonist Activity Ca^2+ IC50) [nM]	Apparent Antagonist Activity pIC50 ± SE [2, 10]	IC50 ([2]; Table 11, Ca^2+ mobilisation, HMDM, read-out: Apparent Antagonist Activity IC50) [nM]	EC50 ([2]; Table 9, Ca^2+ mobilization, HMDM, read-out: EC50) [nM]	Apparent Antagonist Activity pEC50 ± SE [2, 10]	EC50 ([2]; Table 11, Ca^2+ mobilisation, HMDM, read-out: Apparent Antagonist Activity EC50) [nM]	Molecule	Induction of gene expression of IL1B, IL8, CCL3, EGR1, FOSB and TNF [3]	Apparent Antagonist Activity pEC50 ± SE (symbol) ([2]; Table 11)	Effect of antagonist on gene induction by C3a or compounds 8 or 64 ([3]; SB290157 5 μM, 30 mins preincubation)	Effect of pertussis toxin pre-treatment on gene induction by C3a or compounds 8 or 64 ([3]; 200 ng/mL pertussis toxin overnight, then 300 nM agonist for 30 minutes (not shown))
7.6	8.0	24	potent full agonist	–	–	–	–	–	–	–	–	–	–	–	–	Cc1nc(C(c2ccccc2)c2ccccc2)[nH]c1C(=O)N[C@@H](CCCNC(=N)N)C(=O)O [Compound 64, 2-Diphenylmethyl-4-methyl imidazole-5-carboxyl-Arg-OH]	significantly induce gene expression; also recorded: induced expression of inflammatory genes	–	–	–
11	–	–	–	7.42 ± 0.06	38	7.42 ± 0.06	38	5.52 ± 0.08	3050	1300	5.6 ± 0.09	2700	–	–	–	NC(N)=NCCC[C@H](NC(=O)COCC(c1ccccc1)c1ccccc1)C(=O)O [SB290157, reference compound]	–	* (The compounds show no agonist activity in calcium mobilisation assays up to 100 μM.)	prevented	–
0.07	–	45000	–	9.64 ± 0.04	0.23	9.64 ± 0.04	0.23	7.19 ± 0.06	–	–	–	–	65	7.2 ± 0.06	65	hC3a: human complement protein C3a, natural ligand of the C3a receptor; unlabelled competitor and reference agonist	significantly induce gene expression	–	–	–
–	–	–	–	–	–	–	–	–	–	–	–	–	–	–	–	pertussis toxin [reference compound]	–	–	–	ablated
